We go through one molecule from patent EP0319316A2, “Griseolic acid monoesters, their preparation and use” (SANKYO COMPANY LIMITED, priority 1987, dated 1989).

In data set [1] the test system is water load-induced elevation of intraocular pressure. Nature of the data set: Effect on water load-induced elevation of intraocular pressure, water load test (Experiment 2). In kind it is in vivo, male New Zealand white rabbits. The note with it: 2.0% sample solution. How it is done: In the following Experiments 1 to 6, the test animals used were male New Zealand white rabbits, each weighing about 2.5 kg, raised in a room where the room temperature, relative humidity and lighting time were controlled to be 23° C, 60% and from 07:00 to 19:00, respectively. The animals were chosen from those where no abnormalities could be detected in their eyes by observation with the naked eye. They were given water freely but feed was restricted. The compound under test was dissolved in 100 mM of a sodium phosphate buffer solution (pH 7.2) containing a small amount of a 0.1 N aqueous solution of sodium hydroxide. In the case of timolol maleate, a 0.5% w/v eye lotion (Timoptol 0.5%, Santen Pharm. Co.) was used as such. Each rabbit was anesthetized with urethane (1.0 g/kg, i.v.), and the IOP values of both eyes were measured. Immediately thereafter, 50 µℓ of the sample solution was applied to one eye (test eye). To the other eye (control eye), 50 µℓ of the vehicle alone was applied. Ninety minutes after this application, the values of IOP were measured and then the water load test was performed as follows. Sixty ml/kg of tap water was given compulsorily per os to the anesthetized rabbit, and then the values of IOP for both eyes were measured with the passage of time. In this Experiment, the test compound was the compound of Example 19(b), i.e. 9'-(4-acetoxybenzyl) griseolate.

The subject of data set [2] is Normal intraocular pressure. Nature of the data set: Normal intraocular pressure lowering effect (Experiment 3). The format is in vivo, male New Zealand white rabbits. The conditions noted are these: 2.0% sample solution, p < 0.05. On the procedure:
In the following Experiments 1 to 6, the test animals used were male New Zealand white rabbits, each weighing about 2.5 kg, raised in a room where the room temperature, relative humidity and lighting time were controlled to be 23° C, 60% and from 07:00 to 19:00, respectively. The animals were chosen from those where no abnormalities could be detected in their eyes by observation with the naked eye. They were given water freely but feed was restricted. The compound under test was dissolved in 100 mM of a sodium phosphate buffer solution (pH 7.2) containing a small amount of a 0.1 N aqueous solution of sodium hydroxide. In the case of timolol maleate, a 0.5% w/v eye lotion (Timoptol 0.5%, Santen Pharm. Co.) was used as such. The corneal surface was anesthetized by the application of oxybuprocain hydrochloride (Benoxil 0.4% solution, Santen Pharm. Co.), and the IOP was measured by means of an Alcon Applanation Pneumatograph (Japan Alcon) in rabbits. The measurements were carried out 2 or 3 times for each eye, and the mean value was calculated and is regarded as the value of IOP. After determination of the IOP, 25 µℓ of a sample solution was applied to one eye (test eye) three times every two minutes, and the same volume of the vehicle alone was applied to the other eye (control eye). The values of IOP of both eyes were measured with the passage of time. In this Experiment, the test compound was the compound of Example 19(b).

Data set [3] deals with Male F344 rats. Nature of the data set: Acute toxicity in the rat (Experiment 7). The format is in vivo. The conditions noted are these: single, observation one week. How it is done:
Animals: Male F344 rats were used, each group consisting of 3 animals.
Drug preparation and administration: the compound of Example 19(b) was dissolved in distilled water and administered subcutaneously to the rats in a volume of 0.5 ml per 100 g of body weight. Observation of the rats was carried out over a period of one week.

For data set [4], the system named is Male F344 rats. The data set can be described thus: Four-day toxicity in the rat (Experiment 8). The format is in vivo. On the procedure: Animals: Male F344 rats were used, each group consisting of 5 animals.
Drug preparation and administration: the compound of Example 19(b) was dissolved in distilled water and administered subcutaneously to the rats in a volume of 0.4 ml per 100 g of body weight at 09:00 for 4 days. Twenty-four hours after the final dose the rats were anesthetized with diethyl ether and their blood and organs were collected, weighed and used for pathological examination.

Another data set deals with eyes. Nature of the data set: Eye irritation by the Draize method (Experiment 11). The format is in vivo, male New Zealand white rabbit. The conditions noted are these: 2% by weight solution, 0.05 ml three times a day for seven days, right eye. How it is done: The irritation to the eyes caused by solutions of the compound of Example 19(b) was determined by the Draize method [J.H. Draize et af., J. Pharmacol. Exp. Ther., 82,377 (1944)] and evaluated by the method of Kay and Calandra [J.H. Kay and J.C. Calandra, J. Soc. Cosmet. Chem., 13, 281 (1962)].
The test solution employed was a simple solution of 2% by weight of the test compound in 100 mM of a sodium phosphate buffer (pH 7.2) for injections and adjusted to a pH value of from 7 to 8, as required.
A male New Zealand white rabbit of body weight about 2.5 kg was placed in a pillory to fix its head. 0.05 ml of the test solution was instilled into its right eye three times a day (at 09:00, 13:00 and 17:00) for seven days. The symptoms experienced by the anterior portion of the right eye were observed every day at 18:00 over a period of seven days, and the irritation observed was scored.

Another data set deals with Balb/3T3 cells. The conditions noted are these: 10 min, 500 µM.
On the set-up of data set [5]: species or system Male albino rabbits. The conditions noted are these: rabbit, in vivo.

Procedure for Balb/3T3 cells: Balb/3T3 cells were incubated in Dulbecco's modified Eagle medium (glucose-rich) containing 100/o v/v bovine fetal serum. […] The sample was then dissolved in a buffer solution prepared by the further addition of 4 mM of calcium chloride to the buffer solution mentioned above. If the sample was difficult to dissolve in water, it was dissolved first in dimethyl sulphoxide (DMSO) and then the resulting solution was diluted with the buffer (the final concentration of DMSO was determined to be 0.1%). The cell suspension was preincubated at 30° C for 5 minutes, and 100 µℓ of this suspension were added to 100 µℓ of the sample solution to initiate enzymatic reaction. After incubation at 30° C for 10 minutes, 20 µℓ of 1 N aqueous hydrochloric acid was added to stop the reaction. The reaction mixture was then centrifuged at 3000 rpm for 3 minutes to obtain 100 µℓ of the supernatant. Cyclic 3',5'-adenosine monophosphate (cAMP) contained in the supernatant was quantitatively analyzed by radioimmunoassay using a Yamasa cAMP radioimmunoassay kit YSI-7701. The CAMP accumulating effect is reported as the ratio between the value measured using a test compound and that measured in the control.

As for `CC(=O)Oc1ccc(COC(=O)C23C=C(C(O)C(=O)O)OC2C(O)C(n2cnc4c(N)ncnc42)O3)cc1` (stereo not shown) [Example 19(b), 9'-(4-Acetoxybenzyl) griseolate], the “IOP of test eye” value is recorded as 16.8 ± 1.0 mmHg in data set [1] (50 µℓ, 90 minutes after application, before water loading, control eye 17.1 ± 1.1); 25.6 ± 2.2 mmHg in data set [1] (0.5 hours after water loading (60 ml/kg per os), control eye 28.7 ± 1.8, p < 0.05); 22.6 ± 2.3 mmHg in data set [1] (1.0 hours after water loading, control eye 26.3 ± 2.4, p < 0.05); 17.5 ± 1.2 mmHg in data set [1] (1.5 hours after water loading, control eye 20.3 ± 1.6, p < 0.05); 17.1 ± 1.1 mmHg in data set [1] (2.0 hours after water loading, control eye 17.4 ± 1.5); 15.6 ± 1.5 mmHg in data set [1] (2.5 hours after water loading, control eye 17.4 ± 1.9, p < 0.05). For the same molecule, the “IOP of test eye” value is 19.5 ± 1.4 mmHg in data set [2] (25 µℓ three times every two minutes, one hour after application, control eye 20.7 ± 1.4); 19.3 ± 1.3 mmHg in data set [2] (2 hours after application, control eye 21.4); 20.6 ± 0.7 mmHg in data set [2] (5 hours after application, control eye 22.8 ± 0.5). For the same molecule, the death rate is 0/3 in the data set with Male F344 rats [3] (dose 25 mg/kg subcutaneously); 0/3 in the data set on Male F344 rats [3] (dose 50 mg/kg subcutaneously); 3/3 with Male F344 rats [3] (dose 100 mg/kg subcutaneously); 0/5 in the data set on Male F344 rats [4] (dose 6.25 mg/kg subcutaneously for 4 days); 0/5 in the data set on Male F344 rats [4] (dose 12.5 mg/kg subcutaneously for 4 days); 0/5 with Male F344 rats [4] (dose 25 mg/kg subcutaneously for 4 days). For the same molecule, the death rate with Male F344 rats [4] (dose 50 mg/kg subcutaneously for 4 days) is listed as 5/5. For the same molecule, the “irritation to the eyes” value in the data set with eyes is “No significant stimulus was observed”. In the data set on Balb/3T3 cells, this molecule returned a cAMP accumulating effect of 16. In addition, the IP in data set [5] was determined as 5.1 ± 0.5 mg/dL.
